Where two headings read alike, the source gives them in different places.
Target: human adenosine A2b receptor (Homo sapiens (Human), UniProt P29275)
Test: Cellular in vitro reporter gene test for A2b receptor activity (CHO-K1, CRE-luciferase, NECA stimulation)
Type: cell-based
In short: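 CHO-K1 cells with CRE-driven luciferase; antagonists co-incubated with NECA at its EC50, determined in a pre-experiment on each test day. Luciferase read by luminescence 3 h after NECA addition.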

[1] = recombinant CHO-K1 cell line, CRE-luciferase reporter, antagonism of EC50 concentration of NECA, in some cases means of several determinations, rounded to two significant figures, read-out: A2b receptor IC50

Sequence of human adenosine A2b receptor (P29275 whole entry): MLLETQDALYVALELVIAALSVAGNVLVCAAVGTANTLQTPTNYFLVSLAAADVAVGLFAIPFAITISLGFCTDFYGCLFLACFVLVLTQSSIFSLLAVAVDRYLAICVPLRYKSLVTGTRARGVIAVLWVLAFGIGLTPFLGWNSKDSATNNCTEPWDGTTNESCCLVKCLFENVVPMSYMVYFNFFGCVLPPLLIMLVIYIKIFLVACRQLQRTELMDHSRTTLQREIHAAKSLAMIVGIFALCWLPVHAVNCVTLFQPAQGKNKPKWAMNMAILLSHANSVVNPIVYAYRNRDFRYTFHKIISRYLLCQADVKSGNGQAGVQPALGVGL

Row | Compound | IC50 [1] | IC50
1 | COCCn1c(=O)c2c(C)c(CN3CCNC3=NC#N)sc2n(CC2CCO2)c1=O (racemic) [Example 364, [1-{[3-(2-Methoxyethyl)-5-methyl-1-(oxetan-2-ylmethyl)-2,4-dioxo-1,2,3,4-tetrahydrothieno[2,3-d]pyrimidin-6-yl]methyl}imidazolidin-2-ylidene]cyanamide] | 170 nM | 
2 | Cc1c(CN2CCNC(=O)C2=O)sc2c1c(=O)n(CC(F)(F)F)c(=O)n2CC1CCCO1 (single isomer, unassigned) [Example 488, 6-[(2,3-Dioxopiperazin-1-yl)methyl]-5-methyl-1-(tetrahydrofuran-2-ylmethyl)-3-(2,2,2-trifluoroethyl)thieno[2,3-d]pyrimidine-2,4(1H,3H)-dione] | 68 nM | 
3 | COCCn1c(=O)c2c(C)c(CN3CCNC3=NC#N)sc2n(CC2CCCO2)c1=O (single isomer, unassigned) [Example 368, [1-{[3-(2-Methoxyethyl)-5-methyl-2,4-dioxo-1-(tetrahydrofuran-2-ylmethyl)-1,2,3,4-tetrahydrothieno[2,3-d]pyrimidin-6-yl]methyl}imidazolidin-2-ylidene]cyanamide] | 82 nM | 
4 | CCn1c(=O)c2c(C)c(Cn3cc(C)[nH]c3=O)sc2n(CCC(F)(F)F)c1=O [Example 250, 3-Ethyl-5-methyl-6-[(4-methyl-2-oxo-2,3-dihydro-1H-imidazol-1-yl)methyl]-1-(3,3,3-trifluoropropyl)thieno[2,3-d]pyrimidine-2,4(1H,3H)-dione] | 18 nM | 
5 | COCCn1c(=O)c2c(C)c(CN3CCNC(=O)C3=O)sc2n(CCCF)c1=O [Example 277, 6-[(2,3-Dioxopiperazin-1-yl)methyl]-1-(3-fluoropropyl)-3-(2-methoxyethyl)-5-methylthieno[2,3-d]pyrimidine-2,4(1H,3H)-dione] | 68 nM | 
6 | Cc1c(CN2CCNC(=O)C2=O)sc2c1c(=O)n(CC(F)(F)F)c(=O)n2C [Example 124, 6-[(2,3-Dioxopiperazin-1-yl)methyl]-1,5-dimethyl-3-(2,2,2-trifluoroethyl)thieno[2,3-d]pyrimidine-2,4(1H,3H)-dione] | 60 nM | 
7 | CCn1c(=O)c2c(C)c(CN3CCNC3=O)sc2n(CC2CCCCO2)c1=O (single isomer, unassigned) [Example 179, 3-Ethyl-5-methyl-6-[(2-oxoimidazolidin-1-yl)methyl]-1-(tetrahydro-2H-pyran-2-ylmethyl)thieno[2,3-d]pyrimidine-2,4(1H,3H)-dione] | 200 nM | 
8 | Cc1c(Cn2nc[nH]c2=O)sc2c1c(=O)n(C(C)C)c(=O)n2CC1CCCO1 (racemic) [Example 424, 3-Isopropyl-5-methyl-6-[(5-oxo-4,5-dihydro-1H-1,2,4-triazol-1-yl)methyl]-1-(tetrahydrofuran-2-ylmethyl)thieno[2,3-d]pyrimidine-2,4(1H,3H)-dione] | 88 nM | 
9 | COCCn1c(=O)c2c(C)c(CN3CCNC3=NC#N)sc2n(CC2CCO2)c1=O (single isomer, unassigned) [Example 366, [1-{[3-Methoxyethyl-5-methyl-1-(oxetan-2-ylmethyl)-2,4-dioxo-1,2,3,4-tetrahydrothieno[2,3-d]pyrimidin-6-yl]methyl}imidazolidin-2-ylidene]cyanamide] | 40 nM | 
10 | COCCCn1c(=O)c2c(C)c(CN3CCNC3=O)sc2n(CCOC)c1=O [Example 328, 1-(2-Methoxyethyl)-3-(3-methoxypropyl)-5-methyl-6-[(2-oxoimidazolidin-1-yl)methyl]thieno[2,3-d]pyrimidine-2,4(1H,3H)-dione] | 19 nM | 
11 | Cc1c(CN2CCNC2=O)sc2c1c(=O)n(C(C)C)c(=O)n2CC1CCO1 (racemic) [Example 183, 3-Isopropyl-5-methyl-1-(oxetan-2-ylmethyl)-6-[(2-oxoimidazolidin-1-yl)methyl]thieno[2,3-d]pyrimidine-2,4(1H,3H)-dione] | 17 nM | 
12 | CCn1c(=O)c2c(C)c(CN3CCNC3=O)sc2n(CC(C)OC)c1=O (single isomer, unassigned; enantiomer 2) [Example 64, 3-Ethyl-1-(2-methoxypropyl)-5-methyl-6-[(2-oxoimidazolidin-1-yl)methyl]thieno[2,3-d]pyrimidine-2,4(1H,3H)-dione (Enantiomer 2)] | 86 nM | 
13 | COCCn1c(=O)n(C(C)C(F)(F)F)c(=O)c2c(C)c(Cn3nc[nH]c3=O)sc21 (racemic) [Example 438, 1-(2-Methoxyethyl)-5-methyl-6-[(5-oxo-4,5-dihydro-1H-1,2,4-triazol-1-yl)methyl]-3-(1,1,1-trifluoropropan-2-yl)thieno[2,3-d]pyrimidine-2,4(1H,3H)-dione] |  | 150 nM

The next lines start with the values.

Row | IC50 [1] | IC50 | Compound
14 | 2.3 nM |  | Cc1c(CN2CCNC2=NC#N)sc2c1c(=O)n(C(C)C)c(=O)n2CCC(F)(F)F [Example 262, [1-{[3-Isopropyl-5-methyl-2,4-dioxo-1-(3,3,3-trifluoropropyl)-1,2,3,4-tetrahydrothieno[2,3-d]pyrimidin-6-yl]methyl}imidazolidin-2-ylidene]cyanamide]
15 | 1.5 nM |  | COCCn1c(=O)n(CCc2ccccc2)c(=O)c2c(C)c(CN3CCNC3=O)sc21 [Example 176, 1-(2-Methoxyethyl)-5-methyl-6-[(2-oxoimidazolidin-1-yl)methyl]-3-(2-phenylethyl)thieno[2,3-d]pyrimidine-2,4(1H,3H)-dione]
16 | 6.3 nM |  | CCn1c(=O)c2c(C)c(CN3CCNC3=NC(=O)OC)sc2n(CC2CCCO2)c1=O (single isomer, unassigned) [Example 375, Methyl [1-{[3-ethyl-5-methyl-2,4-dioxo-1-(tetrahydrofuran-2-ylmethyl)-1,2,3,4-tetrahydrothieno[2,3-d]pyrimidin-6-yl]methyl}imidazolidin-2-ylidene]carbamate]
17 | 11 nM |  | CCN1CCN(Cc2sc3c(c2C)c(=O)n(CCc2ccccc2)c(=O)n3CCOC)C1=O [Example 239, 6-[(3-Ethyl-2-oxoimidazolidin-1-yl)methyl]-1-(2-methoxyethyl)-5-methyl-3-(2-phenylethyl)thieno[2,3-d]pyrimidine-2,4(1H,3H)-dione]
18 | 9.3 nM |  | CCn1c(=O)c2c(C)c(CN3CCNC3=O)sc2n(C)c1=O [Example 76, 3-Ethyl-1,5-dimethyl-6-[(2-oxoimidazolidin-1-yl)methyl]thieno[2,3-d]pyrimidine-2,4(1H,3H)-dione]
19 | 5.1 nM |  | [2H]C([2H])(c1sc2c(c1C)c(=O)n(C(C)C)c(=O)n2CCOC)N1CCNC1=NC#N [Example 512, [1-{[3-Isopropyl-1-(2-methoxyethyl)-5-methyl-2,4-dioxo-1,2,3,4-tetrahydrothieno[2,3-d]pyrimidin-6-yl](dideutero)methyl}imidazolidin-2-ylidene]cyanamide]
20 | 12 nM |  | CCn1c(=O)c2c(C)c(CN3CCCCC3=O)sc2n(CCC(F)(F)F)c1=O [Example 12, 3-Ethyl-5-methyl-6-[(2-oxopiperidin-1-yl)methyl]-1-(3,3,3-trifluoropropyl)thieno[2,3-d]pyrimidine-2,4(1H,3H)-dione]
21 | 15 nM |  | Cc1c(CN2CCNC2=O)sc2c1c(=O)n(CC(F)F)c(=O)n2CC1CCCO1 (single isomer, unassigned) [Example 220, 3-(2,2-Difluoroethyl)-5-methyl-6-[(2-oxoimidazolidin-1-yl)methyl]-1-(tetrahydrofuran-2-ylmethyl)thieno[2,3-d]pyrimidine-2,4(1H,3H)-dione]
22 | 5.7 nM |  | Cc1c(CN2CCNC2=S)sc2c1c(=O)n(CC(F)(F)F)c(=O)n2CC1CCCO1 (racemic) [Example 157, 5-Methyl-1-(tetrahydrofuran-2-ylmethyl)-6-[(2-thioxoimidazolidin-1-yl)methyl]-3-(2,2,2-trifluoroethyl)thieno[2,3-d]pyrimidine-2,4(1H,3H)-dione]
23 | 12 nM |  | CCn1c(=O)c2c(C)c(CN3CCNC(=O)C3=O)sc2n(CCOC)c1=O [Example 120, 6-[(2,3-Dioxopiperazin-1-yl)methyl]-3-ethyl-1-(2-methoxyethyl)-5-methylthieno[2,3-d]pyrimidine-2,4(1H,3H)-dione]
24 | 14 nM |  | CCn1c(=O)c2c(C)c(CN3CCNC3=O)sc2n(CC#N)c1=O [Example 81, {3-Ethyl-5-methyl-2,4-dioxo-6-[(2-oxoimidazolidin-1-yl)methyl]-3,4-dihydrothieno[2,3-d]pyrimidin-1 (2H)-yl}acetonitrile]
25 | 8.8 nM |  | COC(=O)N=C1NCCN1Cc1sc2c(c1C)c(=O)n(CC(F)(F)F)c(=O)n2CC1CCCO1 (single isomer, unassigned) [Example 469, Methyl [1-{[5-methyl-2,4-dioxo-1-(tetrahydrofuran-2-ylmethyl)-3-(2,2,2-trifluoroethyl)-1,2,3,4-tetrahydrothieno[2,3-d]pyrimidin-6-yl]methyl}imidazolidin-2-ylidene]carbamate]
26 | 3.6 nM |  | COCCn1c(=O)n(CC(C)C)c(=O)c2c(C)c(CN3CCNC3=S)sc21 [Example 39, 3-Isobutyl-1-(2-methoxyethyl)-5-methyl-6-[(2-thioxoimidazolidin-1-yl)methyl]thieno[2,3-d]pyrimidine-2,4(1H,3H)-dione]
27 | 10 nM |  | Cc1c(CN2CCNC2=NC#N)sc2c1c(=O)n(CC(F)(F)F)c(=O)n2CC1CCCO1 (single isomer, unassigned) [Example 360, [1-{[5-Methyl-2,4-dioxo-1-(tetrahydrofuran-2-ylmethyl)-3-(2,2,2-trifluoroethyl)-1,2,3,4-tetrahydrothieno[2,3-d]pyrimidin-6-yl]methyl}imidazolidin-2-ylidene]cyanamide]
28 | 7.1 nM |  | COC(=O)N=C1NCCN1Cc1sc2c(c1C)c(=O)n(C(C)C)c(=O)n2CC1CCO1 (single isomer, unassigned) [Example 457, Methyl [1-{[3-isopropyl-5-methyl-1-(oxetan-2-ylmethyl)-2,4-dioxo-1,2,3,4-tetrahydrothieno[2,3-d]pyrimidin-6-yl]methyl}imidazolidin-2-ylidene]carbamate]

— patent US10428083B2, “Heterocyclylmethyl-thienouracile as antagonists of the adenosine-A2B-receptor” (BAYER PHARMA AKTIENGESELLSCHAFT, priority 2015, dated 2019)
